Entries after “also recorded” stand apart in the source; their conditions may differ. Peptide text beside a SMILES is read from it.
Molecular target: T1, IL-23R (Mus musculus, UniProt Q8K4B4)
T1 construct: Spleens were sterilely removed from mice, sliced, and mashed in the presence of PBS buffer; from tissue; host or cells: mouse spleen: freshly isolated splenocytes, and CD4+ cells differentiated into TH17 cells
T1 sequence (Q8K4B4 24-644): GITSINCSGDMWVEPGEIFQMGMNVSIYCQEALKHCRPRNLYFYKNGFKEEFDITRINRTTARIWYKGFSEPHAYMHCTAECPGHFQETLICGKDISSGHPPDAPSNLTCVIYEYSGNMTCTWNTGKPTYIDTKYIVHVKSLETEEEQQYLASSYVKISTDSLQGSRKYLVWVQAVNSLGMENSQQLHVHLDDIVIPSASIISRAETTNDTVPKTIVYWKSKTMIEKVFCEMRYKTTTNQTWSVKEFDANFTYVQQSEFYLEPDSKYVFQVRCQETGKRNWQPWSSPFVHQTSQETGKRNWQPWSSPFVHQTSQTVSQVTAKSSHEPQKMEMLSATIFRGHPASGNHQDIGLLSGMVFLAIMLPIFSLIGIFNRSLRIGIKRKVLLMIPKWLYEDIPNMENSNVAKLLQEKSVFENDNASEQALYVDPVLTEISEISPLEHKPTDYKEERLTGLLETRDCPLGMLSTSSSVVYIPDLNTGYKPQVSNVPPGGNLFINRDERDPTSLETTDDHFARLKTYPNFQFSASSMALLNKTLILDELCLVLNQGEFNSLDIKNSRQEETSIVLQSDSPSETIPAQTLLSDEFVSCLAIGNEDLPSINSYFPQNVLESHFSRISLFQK
Experiment: IL-23-induced STAT3 phosphorylation in differentiated TH17 cells (Alpha Screen SureFire p-STAT-3)
Type: cell-based
Conditions: listed as APG-2309
Experimental: CD4+ cells were isolated from 2.5×10^8 splenocytes with the EasySep isolation kit (StemCell Technologies) according to the manufacturer's instructions. CD4+ cells were incubated overnight with non-essential amino acids and anti-CD3 and CD28 antibodies (see above). The next day the cells were split into 12-well plates (1-2×10^6 cells/well) and incubated with complete RPMI medium (10% FBS, Pen/Strep, and non-essential amino acids (1×)) and a differentiation cocktail containing 2 μg/ml of anti-CD3, 2 μg/ml of anti-CD28, 5 ng/ml of TGFb1, 20 ng/ml of IL-6, 10 ng/ml of IL-23, 2 μg/ml of anti-rat anti IFNγ and 10 μg/ml of anti-mouse IL-4 (final concentrations).
Splenocytes or TH17 cells were distributed in 384-well plates (Optiplate; Perkin Elmer) (100,000 cells/well). Cells were pre-incubated for 30 minutes with different concentrations of peptide APG-2305 or APG-2309 and incubated with 25 ng/ml of IL-23 (R&D systems) for 10 minutes. STAT3 phosphorylation was determined with the kit Alpha Screen SureFire p-STAT-3 assay from Perkin Elmer according to manufacturer's instructions. Briefly, after incubation with IL-23, cells were lysed and contacted with (1) protein A acceptor conjugated beads coated with anti-p-STAT-3 (Tyr705) and (2) streptavidin-coated donor beads. The resulting signal was measured with a Perkin Elmer Wallac En vision 2104 Multilabel reader. […]

SMILES: CSCC[C@@H](N)C(=O)N[C@H](CCC(=O)O)C(=O)N[C@H](CCC(=O)O)C(=O)N[C@H](CO)C(=O)N[C@H](CCCCN)C(=O)N[C@H](CCC(N)=O)C(=O)N[C@H](CC(C)C)C(=O)N[C@H](CCC(N)=O)C(=O)N[C@H](CC(C)C)C(=O)O [Peptide 2309, MEESKQLQL] (HELM PEPTIDE1{[dM].[dE].[dE].[dS].[dK].[dQ].[dL].[dQ].[dL]}$$$$V2.0; N-terminus and C-terminus assumed)
- effect on IL-23-induced STAT3 phosphorylation: inhibit; also recorded: showed efficacy

Reference: patent publication US20100190710A1, “IL-23 RECEPTOR ANTAGONISTS AND USES THEREOF” (Valorisation HSJ, Societe en Commandite, priority 2007, published 2010)
